{"source": "patent US20120329815A1", "about": "“Famciclovir for the Treatment of Recurrent Herpes Labialis using a One-Day Treatment” (priority 2005, published 2012)", "key": {"[1]": {"test_system": "recurrent herpes labialis", "assay": "Study 2403: randomized, double-blind, placebo-controlled trial of patient-initiated one-day therapy, efficacy", "type": "in vivo, human", "details": "for Hazard ratio vs placebo, time to healing of all (non-aborted and aborted) lesions / Proportion of patients with aborted lesions / Time to healing of all (non-aborted and aborted) lesions (median): ITT; for Time to healing of all (non-aborted and aborted) lesions (median): aborted lesions assigned time zero", "excerpt": "This study design is a parallel-group, double-blind, double-dummy, randomized placebo-controlled trial of patient initiated therapy in adult immunocompetent patients with recurrent herpes labialis.\nAdult immunocompetent patients with a history of recurrent herpes labialis and at least three episodes in the previous 12 months are selected. These patients have a history of prodromal symptoms preceding at least 50% of their herpes labialis episodes and a history of vesicular lesions occurring in at least 50% of those episodes.\nAfter screening, a total of 900 eligible patients are randomly assigned to one of three treatment groups and are dispensed study medication. The overall assignment ratio is 1:1:1. Patients are instructed to initiate treatment within one hour of the first prodromal symptom without any clinical signs of a recurrent episode of herpes labialis.\nGroup 1, famciclovir 1500 mg daily (1500 mg po followed by placebo 12 hours later)\nGroup 2, famciclovir 1500 mg daily (750 mg po b.i.d.) or\nGroup 3, matching placebo capsules (po b.i.d.).\nThe criteria for evaluation include the primary efficacy variable and secondary efficacy variables. The primary efficacy variable is the investigator-assessed time to healing (re-epithelialization) of the non-aborted primary lesion complex, defined as the time from start of treatment until loss of crust (erythema may have been present). Secondary efficacy variables include time to healing of all non-aborted lesions (primary lesion complex and secondary lesions), time to healing of all lesions (non-aborted and aborted; latter assigned a time to healing of zero), and proportion of patients with aborted lesions.\nLesion healing for vesicular lesions is defined as loss of crust, although erythema may still be present. At each visit starting with Visit 2, the investigator makes assessments based on both the investigator examination of the current visit and patient diary entries since the previous visit. If healing is confirmed, the time of healing is defined as the earliest time it was reported and continuously maintained in the diary. This convention applies to the assessment of both the primary lesion complex and all vesicular lesions.\nThe Kaplan-Meier method is used to estimate the distribution of time to healing for each treatment group and the median time to healing. Estimated survival curves are plotted. The 95% confidence intervals for the median times to healing are constructed based on the first-order Taylor series approximation of their standard errors using the standard errors of the estimated survival functions. The 95% confidence intervals for between-treatment median differences are constructed using standard errors.\nThe overall distribution of the time to healing will be compared among treatment groups using the proportional hazards model, with treatment and center as the explanatory, variables. The Efron approximate likelihood method will be used for resolution of ties. Confidence intervals for the hazard ratios will be provided.\nVariable 1, the primary efficacy variable, is the investigator-assessed time to healing of the primary lesion complex, defined as the time from start of treatment until loss of crust (for vesicular (classical) lesions progressing through the vesicle/ulcer stage only, erythema is allowed).\nThe primary efficacy variable, investigator-assessed time to healing of the primary lesion complex, is analyzed over the modified ITT population in two approaches: the primary estimation is based on the Kaplan-Meier method, and statistical testing is based on the proportional hazards model.\nSecondary efficacy variables include variables 2-7. Variable 2 is the time to healing (lost of crust) of the primary lesion complex (non-vesicular lesions will be assigned a time of zero). Variable 3 is the time to healing (loss of crust) of all vesicular lesions (non-vesicular lesions will be assigned a time of zero). […]"}, "[2]": {"assay": "Study 2403: safety and tolerability evaluation", "type": "in vivo, human", "details": "high-dose one-day treatment (750 mg b.i.d. or 1,500 mg q.d.), immunocompetent patients", "excerpt": "The assessment of safety is based mainly on the frequency of adverse events. Adverse events are summarized by presenting, for each treatment group, the number and percentage of patients having any adverse event, having an adverse event in each body system and having each individual adverse event. Any other information collected (e.g., severity or relatedness to study medication) will be listed as appropriate.\nThe safety and ITT populations include all randomized patients who are exposed to (take any) study medication. Using the above definitions, the safety and ITT populations comprise the same patients. For compatibility with the standard presentations, all safety summaries are referenced using the Safety population while appropriate efficacy summaries (for secondary parameters involving both vesicular and non-vesicular lesions) are referenced using the ITT population."}, "[3]": {"test_system": "recurrent herpes labialis", "details": "500 mg three times a day for five days; immunocompetent adult patients; cited from earlier work"}, "herpes labialis": {"test_system": "herpes labialis", "details": "2,000 mg twice a day for one day; immunocompetent adult patients; cited from earlier work"}, "[4]": {"test_system": "orolabial herpes infection", "details": "200 mg or 400 mg five times a day for five days; cited from earlier work"}, "[5]": {"details": "750 mg b.i.d. for one day, Modified ITT"}, "[6]": {"details": "750 mg b.i.d. for one day, Per Protocol"}, "[7]": {"details": "1500 mg q.d. single dose, Modified ITT"}, "[8]": {"details": "1500 mg q.d. single dose, Per Protocol"}}, "data": [{"smiles": "CC(=O)OCC(CCn1cnc2cnc(N)nc21)COC(C)=O", "note": "[Famciclovir, 9-(4-acetoxy-3-acetoxymethylbut-1-yl)-2-aminopurine]", "values": [{"measurement": "Hazard ratio vs placebo, time to healing of all (non-aborted and aborted) lesions", "setting": "[1]; 750 mg b.i.d. for one day", "result": 1.39}, {"measurement": "Proportion of patients with aborted lesions", "setting": "[1]; 750 mg b.i.d. for one day", "result": 29, "unit": "%"}, {"measurement": "Time to healing of all (non-aborted and aborted) lesions (median)", "setting": "[1]; 750 mg b.i.d. for one day", "result": 3.0, "unit": "days"}, {"measurement": "Hazard ratio vs placebo, time to healing of all non-aborted (primary and secondary) lesions", "setting": "[1]; [5]", "result": 2.06}, {"measurement": "Hazard ratio vs placebo, time to healing of primary lesion complex", "setting": "[1]; [5]", "result": 2.05}, {"measurement": "Time to healing of all non-aborted (primary and secondary) lesions (median)", "setting": "[1]; [5]", "result": 4.1, "unit": "days"}, {"measurement": "Time to healing of primary lesion complex (median)", "setting": "[1]; [5]", "result": 4.0, "unit": "days"}, {"measurement": "Hazard ratio vs placebo, time to healing of primary lesion complex", "setting": "[1]; [6]", "result": 2.06}, {"measurement": "Time to healing of primary lesion complex (median)", "setting": "[1]; [6]", "result": 4.0, "unit": "days"}, {"measurement": "Hazard ratio vs placebo, time to healing of all (non-aborted and aborted) lesions", "setting": "[1]; 1500 mg q.d. single dose", "result": 1.34}, {"measurement": "Proportion of patients with aborted lesions", "setting": "[1]; 1500 mg q.d. single dose", "result": 33, "unit": "%"}, {"measurement": "Time to healing of all (non-aborted and aborted) lesions (median)", "setting": "[1]; 1500 mg q.d. single dose", "result": 2.9, "unit": "days"}, {"measurement": "Hazard ratio vs placebo, time to healing of all non-aborted (primary and secondary) lesions", "setting": "[1]; [7]", "result": 1.71}, {"measurement": "Hazard ratio vs placebo, time to healing of primary lesion complex", "setting": "[1]; [7]", "result": 1.64}, {"measurement": "Time to healing of all non-aborted (primary and secondary) lesions (median)", "setting": "[1]; [7]", "result": 4.5, "unit": "days"}, {"measurement": "Time to healing of primary lesion complex (median)", "setting": "[1]; [7]", "result": 4.4, "unit": "days"}, {"measurement": "Hazard ratio vs placebo, time to healing of primary lesion complex", "setting": "[1]; [8]", "result": 1.71}, {"measurement": "Time to healing of primary lesion complex (median)", "setting": "[1]; [8]", "result": 4.4, "unit": "days"}, {"measurement": "Safety and tolerability", "setting": "[2]", "result": "safe, well-tolerated"}, {"measurement": "Safety and tolerability", "setting": "[2]; listed as FCV", "result": "well tolerated and as safe as placebo"}, {"measurement": "Size of lesions as compared to placebo", "setting": "[3]", "result": "reduction of the size of lesions"}, {"measurement": "Time to healing as compared to placebo", "setting": "[3]", "result": "shorter time to healing"}]}, {"smiles": "CC(C)[C@H](N)C(=O)OCCOCn1cnc2c(=O)[nH]c(N)nc21", "note": "[Valacyclovir]", "values": [{"measurement": "Median time to healing of lesions as compared to placebo", "setting": "herpes labialis", "result": "reduced by approximately one day"}]}, {"smiles": "Nc1nc2c(ncn2COCCO)c(=O)[nH]1", "note": "[acyclovir]", "values": [{"measurement": "Time to healing of vesicular lesions and pain", "setting": "[4]", "result": "significant but limited reduction"}]}]}
